Test results: patent publication US20250197437A1, “CANNABINOID COMPLEXES WITH IMPROVED PROPERTIES” (KEMIJSKI INŠTITUT, priority 2022, published 2025)
Read-outs that look alike come from different tables or passages of the source.

Test: Water solubility test of cannabinoid:glucosamine complexes and pure cannabinoids (HPLC of supernatant)
Format: physicochemical
Settings: thermodynamic from solid
Description: If considered necessary, sonication can also be applied. Afterwards, the solution is centrifuged at 3.000 g for 3 minutes and the supernatant is transferred to a HPLC vial. Concentration of dissolved cannabinoids is determined by analysis on an Agilent 1260 Infinity (Santa Clara, CA, USA) HPLC system. The chromatographic method is adapted from the literature (Križman, 2019). In short, the separation is performed on a Phenomenex (Torrance, CA, USA) Luna C18 (2) (octadecyl silica) chromatographic column, with dimensions 150 mm×3 mm i.d., 3 μm particle size, and temperature set at 37° C. Mobile phase is isocratic consisting of water/acetonitrile with a ratio of 9:31 (v/v), with 0.1% formic acid (v/v) and 10 mM ammonium formate, at a flow rate of 0.8 mL/min and injection volume 5 μL. The UV detection wavelength is 275 nm. The concentration of cannabinoids is determined using an external standard method.
For water solubility studies, 1-1.5 mg of the prepared complex was mixed with 1 mL of distilled water and stirred for 5-10 min, if necessary also sonication was applied. Afterwards the solution was centrifuged at 3.000 g for 3 minutes and the supernatant was transferred to the vials. Concentration of dissolved cannabinoids was determined by HPLC-DAD system (Agilent 1260 Infinity, Santa Clara, CA, USA).

[1] = 1-1.5 mg sample in 1 mL distilled water, stirred 5-10 min, centrifuged, HPLC, printed as greater-than/less-than bounds, read-out: Water solubility of cannabinoid

solubility (water) [µg/mL] | SMILES | solubility [1] [µg/mL]
 | C=C(C)[C@@H]1CCC(C)=C[C@H]1c1c(O)cc(CCCCC)c(C(=O)O)c1O [CBDA, cannabidiolic acid] | < 2
 | C=C(C)[C@@H]1CCC(C)=C[C@H]1c1c(O)cc(CCCCC)cc1O [CBD, cannabidiol] | < 1
< 1 | CCCCCc1cc(O)c(C/C=C(\C)CCC=C(C)C)c(O)c1 [CBG, cannabigerol] | 
